We go through 3 compounds from ChEMBL document CHEMBL5223113, “Several non-salt and solid thienopyridine derivatives as oral P2Y12 receptor inhibitors with good stability” (Bioorg Med Chem Lett, 2022).

Data set [1] relates to Rattus norvegicus. Put plainly: Anti-platelet activity against ADP-induced platelet aggregation in rat assessed as inhibition of platelet aggregation at 0.5 mg/kg relative to control. In kind it is functional.
Data set [2] relates to Rattus norvegicus. In words: Anti-platelet activity against ADP-induced platelet aggregation in rat assessed as inhibition of platelet aggregation at 1 mg/kg relative to control. In kind it is functional.
The test system of data set [3] is Rattus norvegicus. Put plainly: Anti-platelet activity against ADP-induced platelet aggregation in rat assessed as inhibition of platelet aggregation at 2 mg/kg relative to control. In kind it is functional.
Data set [4] deals with Rattus norvegicus. In words: Inhibition of thrombosis in anteriovenous bypassed rat at 3 mg/kg relative to control. In kind it is functional.
The test system of data set [5] is Rattus norvegicus. In words: Inhibition of thrombosis in anteriovenous bypassed rat at 10 mg/kg relative to control. The class given is functional.
In data set [6] the test system is Rattus norvegicus. Put plainly: Inhibition of thrombosis in anteriovenous bypassed rat at 30 mg/kg relative to control. The class given is functional.
Data set [7] deals with Rattus norvegicus. Put plainly: Inhibition of thrombosis in anteriovenous bypassed rat at 1 mg/kg relative to control. In kind it is functional.
The species named for data set [8] is Rattus norvegicus. In words: Inhibition of thrombosis in anteriovenous bypassed rat. The class given is functional.
Data set [9] in a line: Stability in human plasma assessed as compound remaining measured at 5 mins relative to control. In kind it is ADME, cell-free. Conditions: read-out: Stability.
Data set [10] is described as follows: Stability in human plasma assessed as compound remaining measured at 10 mins relative to control. Conditions: read-out: Stability. In kind it is ADME, cell-free.
The nature of data set [11]: Stability in human plasma assessed as compound remaining measured at 20 mins relative to control. The class given is ADME, cell-free. Conditions: read-out: Stability.
A short description of data set [12]: Stability in human plasma assessed as compound remaining measured at 30 mins relative to control. The class given is ADME, cell-free. Conditions: read-out: Stability.
A short description of data set [13]: Stability in human plasma assessed as compound remaining measured at 45 mins relative to control. The class given is ADME, cell-free. Conditions: read-out: Stability.
The nature of data set [14]: Stability in human plasma assessed as compound remaining measured at 60 mins relative to control. In kind it is ADME, cell-free. Conditions: read-out: Stability.
Data set [15] in a line: Stability in human plasma assessed as compound remaining measured at 90 mins relative to control. The class given is ADME, cell-free. Conditions: read-out: Stability.
Data set [16] is described as follows: Stability in human plasma assessed as compound remaining measured at 120 mins relative to control. In kind it is ADME, cell-free. Conditions: read-out: Stability.
The nature of data set [17]: Stability in human plasma assessed as compound remaining measured at 150 mins relative to control. The class given is ADME, cell-free. Conditions: read-out: Stability.
Data set [18] can be described thus: Stability in human plasma assessed as compound remaining measured at 180 mins relative to control. In kind it is ADME, cell-free. Conditions: read-out: Stability.
Data set [19] is described as follows: Stability in human plasma assessed as compound remaining measured at 240 mins relative to control. In kind it is ADME, cell-free. Conditions: read-out: Stability.
Data set [20] can be described thus: Stability in human plasma assessed as compound remaining measured at 300 mins relative to control. Conditions: read-out: Stability. In kind it is ADME, cell-free.
The nature of data set [21]: Stability in human plasma assessed as compound remaining measured at 360 mins relative to control. In kind it is ADME, cell-free. Conditions: read-out: Stability.
Data set [22] can be described thus: Toxicity in beagle dog assessed as death at 2000 mg/kg oral gavage observed for 14 days. The class given is organism-based, Canis lupus familiaris. Conditions: in vivo, 336 h, time 14 day.
Data set [23] is described as follows: Toxicity in beagle dog assessed as electrocardiogram at 2000 mg/kg oral gavage observed for 14 days. The class given is organism-based, Canis lupus familiaris. Conditions: in vivo, 336 h, time 14 day.
Data set [24] is described as follows: Toxicity in beagle dog assessed as abnormality in blood and biochemical index at 2000 mg/kg oral gavage observed for 14 days. In kind it is organism-based, Canis lupus familiaris. Conditions: in vivo, 336 h, time 14 day.
Data set [25] can be described thus: Toxicity in beagle dog assessed as electrocardiogram at 100 to 300 mg/kg/day oral gavage observed for 14 days. In kind it is organism-based, Canis lupus familiaris. Conditions: in vivo, 336 h, dose 100-300 mg/kg/day, time 14 day.
Data set [26] in a line: Toxicity in beagle dog assessed as abnormality in blood and biochemical index at 100 to 300 mg/kg/day oral gavage observed for 14 days. In kind it is organism-based, Canis lupus familiaris. Conditions: in vivo, 336 h, dose 100-300 mg/kg/day, time 14 day.
Data set [27] in a line: Toxicity in beagle dog assessed as dilated pupil at 100 to 300 mg/kg/day oral gavage observed for 14 days. The class given is organism-based, Canis lupus familiaris. Conditions: in vivo, 336 h, dose 100-300 mg/kg/day, time 14 day.
A short description of data set [28]: Toxicity in beagle dog assessed as vomiting at 100 to 300 mg/kg/day oral gavage observed for 14 days. The class given is organism-based, Canis lupus familiaris. Conditions: in vivo, 336 h, dose 100-300 mg/kg/day, time 14 day.
Data set [29] can be described thus: Toxicity in beagle dog assessed as ALT level at 100 to 300 mg/kg/day oral gavage observed for 14 days. The class given is organism-based, Canis lupus familiaris. Conditions: in vivo, 336 h, dose 100-300 mg/kg/day, time 14 day.
Data set [30] in a line: Toxicity in beagle dog assessed as ALP level at 100 to 300 mg/kg/day oral gavage observed for 14 days. In kind it is organism-based, Canis lupus familiaris. Conditions: in vivo, 336 h, dose 100-300 mg/kg/day, time 14 day.
The nature of data set [31]: Toxicity in rat assessed as bleeding time by tail cutting assay. Conditions: in vivo.
A short description of data set [32]: Toxicity in rat assessed as bleeding time by measuring ratio of ED200 to ED50 ratio by tail cutting assay. Conditions: in vivo.
Data set [33] in a line: Toxicity in beagle dog assessed as mydriasis at 100 mg/kg/day oral gavage observed for 14 days. The class given is organism-based, Canis lupus familiaris. Conditions: in vivo, 336 h, time 14 day.
Data set [34] is described as follows: Toxicity in beagle dog assessed as emesis at 100 mg/kg/day oral gavage observed for 14 days. The class given is organism-based, Canis lupus familiaris. Conditions: in vivo, 336 h, time 14 day.
Data set [35] in a line: Toxicity in beagle dog assessed as increase in ALP at 100 mg/kg/day oral gavage observed for 14 days. In kind it is organism-based, Canis lupus familiaris. Conditions: in vivo, 336 h, time 14 day.
Data set [36] is described as follows: Toxicity in beagle dog assessed as decrease in platelet aggregation at 100 mg/kg/day oral gavage observed for 14 days. In kind it is organism-based, Canis lupus familiaris. Conditions: in vivo, 336 h, time 14 day.
Data set [37] is described as follows: Toxicity in beagle dog assessed as increase in liver weight at 100 mg/kg/day oral gavage observed for 14 days. The class given is organism-based, Canis lupus familiaris. Conditions: in vivo, 336 h, time 14 day.
Data set [38] in a line: Toxicity in beagle dog assessed as swelling of hepatocyte at 100 mg/kg/day oral gavage observed for 14 days. The class given is organism-based, Canis lupus familiaris. Conditions: hepatocytes, 336 h, time 14 day.
The subject of data set [39] is Rattus norvegicus. In words: Anti-platelet activity against ADP-induced platelet aggregation in rat assessed as inhibition of platelet aggregation at 4 mg/kg relative to control. In kind it is functional.
Data set [40] relates to Rattus norvegicus. In words: Anti-platelet activity against ADP-induced platelet aggregation in rat assessed as inhibition of platelet aggregation at 8 mg/kg relative to control. The class given is functional.
For data set [41], the species on record is Rattus norvegicus. In words: Anti-platelet activity against ADP-induced platelet aggregation in rat assessed as inhibition of platelet aggregation. In kind it is functional.

Consider `C/C=C/C(=O)Oc1cc2c(s1)CCN([C@H](C(=O)OC)c1ccccc1Cl)C2`, for which the inhibition in vivo at 0.5 mg/kg with Rattus norvegicus [1] amounted to 22.4%. Further, the results for the inhibition in vivo at 1 mg/kg in the data set with Rattus norvegicus [2] and in the data set on Rattus norvegicus [7] were 50.2% and 18.3%, respectively. In addition, the inhibition in vivo at 2 mg/kg in the data set with Rattus norvegicus [3] is 77%. This compound showed an inhibition in vivo at 3 mg/kg with Rattus norvegicus [4] of 43.2%. The inhibition in vivo at 10 mg/kg with Rattus norvegicus [5] came out at 56%. Besides, the inhibition in vivo at 30 mg/kg in the data set with Rattus norvegicus [6] came out at 64.2%. The median effective dose (ED50) in the data set listed under Rattus norvegicus [8] was found to be 11.8 mg/kg. For the same compound, the remaining at 5 min in data set [9] is 91.7%. For the same compound, the remaining at 10 min in data set [10] turned out to be 82.3%. In data set [11], the remaining at 20 min was determined as 60.5%. Moreover, the remaining at 0.5 h in [12] was 44.7%. Moreover, the remaining at 0.75 h in [13] was found to be 28%. Besides, in data set [14], the remaining at 1 h came to 18.3%. In addition, the remaining at 1.5 h in [15] amounted to 5.49%. For the same compound, the remaining at 2 h in [16] is 1.7%. For the same compound, in data set [17], the remaining at 2.5 h was 0.588%. Besides, the remaining at 3 h in data set [18] was 0.231%. Also, the remaining at 4 h in data set [19] is 0%. Moreover, the remaining at 5 h in data set [20] came out at 0%. Besides, the remaining at 6 h in [21] was found to be 0%. Also, the Activity result in data set [22], in data set [23], in data set [24], in [25], in data set [26] and in data set [27] was “Non-Toxic” throughout. Moreover, the Activity entry in data set [28] is recorded as “Non-Toxic”; in data set [29], “Non-Toxic”; in data set [30], “Non-Toxic”; in data set [33] it was “Toxic”; in data set [34], “Toxic”; in data set [35] it was “Toxic”. The Activity result in data set [36], in [37] and in [38] was “Toxic” each time. For the same compound, in [31], the ED200 was 1.977 mg/kg. Moreover, the selectivity ratio in data set [32] turned out to be 1.97.
Turning to `CCC/C=C/C(=O)Oc1cc2c(s1)CCN([C@H](C(=O)OC)c1ccccc1Cl)C2`, the inhibition in vivo at 0.5 mg/kg in the data set on Rattus norvegicus [1] is 19.5%. Also, the inhibition in vivo at 1 mg/kg with Rattus norvegicus [2] was determined as 52.8%. The inhibition in vivo at 2 mg/kg with Rattus norvegicus [3] came to 74.3%.
Take `CC/C=C/C(=O)Oc1cc2c(s1)CCN([C@H](C(=O)OC)c1ccccc1Cl)C2`: in the data set with Rattus norvegicus [1], the inhibition in vivo at 0.5 mg/kg was found to be 26.2%. In addition, the inhibition in vivo at 1 mg/kg in the data set with Rattus norvegicus [2] was 38.2%. For the same compound, the inhibition in vivo at 2 mg/kg with Rattus norvegicus [3] amounted to 62.9%. Besides, in the data set with Rattus norvegicus [39], the inhibition in vivo at 4 mg/kg stood at 78.4%. The inhibition in vivo at 8 mg/kg in the data set on Rattus norvegicus [40] is 100%. The ED50 in the data set filed under Rattus norvegicus [41] came out at 1.23 mg/kg.

As usually defined, the inhibition in vivo is the percentage by which the read-out fell short of the control. As a reminder, the ED50 is the dose at which the effect has come halfway, by size or by number of responders.
